Measurements: patent US10449221B2, “Differentiation of stem cells into thyroid tissue” (TRUSTEES OF BOSTON UNIVERSITY, priority 2015, dated 2019)

How the values were obtained:
Xenopus embryos = assay: Xenopus whole embryo culture in pathway antagonists, in-situ hybridization for thyroid markers; format: in vivo; settings: for nkx2-1 induction in the developing thyroid primordium: inhibitor from stage NF13 through NF35, XAV939 50 μM, BMS493 10 μM
Procedure: Xenopus embryos were generated by in vitro fertilization and assayed by in situ hybridization or confocal immunostaining as previously described (Rankin et al., 2015). Small molecule inhibitors were dissolved in DMSO according to manufacturer's instructions and added to the embryo culture saline at the following working concentrations: 10 μM SU5402 (Tocris Bioscience), 40 μM DMH-1 (Sigma), 50 μM XAV939 (Sigma) and 10 μM BMS493 (Tocris Bioscience). Foregut explants were dissected from stage NF15 and treated with Dispase (BD Pharmingen) for 15 minutes and then the mesoderm was manually removed. Foregut endoderm was then cultured in 0.5× Modified Barth's Saline with 0.1% BSA with or without 500 ng/ml rhFGF2 and 50 ng/ml rhBMP4 (R&D systems).

[1] = tested on: Nkx2-1GFP+; Pax8tdTomato trace+ iPSC-derived cells; assay: Lineage specification of bifluorescent reporter iPSC line by day 14; format: cell-based, mouse; settings: data not shown; for efficiency of lineage specification of Nkx2-1GFP+; Pax8tdTomato trace+ cells: Wnt inhibitor added to induction media; for efficiency of lineage specification, percent yield of GFP+/tdTomato+ cells: factor withdrawn or removed from the Nkx2-1 induction media
Nkx2-1mCherry ESC line = assay: Maturation of ESC-derived Nkx2-1mCherry+ thyroid progenitors, marker mRNA by RT-PCR; format: cell-based, mouse; settings: for thyroid specific gene expression: media used from D22 to D26, RT-PCR at Day 26
Procedure: Further differentiation and maturation of Nkx2-1+ sorted cells was performed in either 2D or 3D culture conditions, as indicated in the text. For 2D differentiation cells sorted on day 14 were replated and grown for 8 more days in cSFDM supplemented with 250 ng/ml mFGF2, 100 ng/ml hFGF10 and 100 ng/ml Heparin Sodium Salt. […] During the first 48 hours after sorting media was supplemented with 10 μM Y27632 (Sigma Y0503). From day 20-26 5 μg/ml ITS was included in the media. […] For cultures longer than 30 days, cells were splitted using Dispase (Corning 354235) on Day 30 and re-embedded in pure Matrigel, and fed with thyroid maturation media until the harvest day indicated in the text. RNA (for FIGS. 1 to 3 and 11c) was extracted from cells using the RNeasy kit (Qiagen 74104) following the manufacturer's protocol. 150 ng of RNA was reverse transcribed to cDNA using TaqMan reverse transcription reagents (Applied Biosystems N8080234) and the manufacturer's protocol. cDNA template was diluted 1:4, and 2 μl of the diluted template was used per 25 μl real time PCR reaction using Taqman Fast Universal PCR Master Mix (Applied Biosystems 4352042) and run in technical triplicates up to 40 cycles of PCR on the Applied Biosystems StepOne machine. Alternatively, 1 μl of the diluted template was used per 13 μl real time reaction on the Applied Biosystems 7900HT Real Time PCR System. Relative gene expression, normalized to 18S control, was calculated as fold change in 18S-normalized gene expression, over baseline, using the 2^(-ΔΔCT) method. Baseline, defined as fold change=1, was set to undifferentiated embryonic stem cell levels, or if undetected, a cycle number of 40 was assigned to allow fold change calculations. For FIGS. 5 and 11 (except FIG. 11c) total RNA was extracted from cultured cells using Stat-60 reagent (Tel-Test Cs-502). Then, 150 ng of total RNA was reverse transcribed using a SuperScript Vilo cDNA synthesis kit from Invitrogen. qPCR was performed in duplicate using the 800HT thermal cycler (Applied Biosystems). Relative mRNA levels were calculated using the standard curve method and normalized to peptidylprolyl isomerase A (cyclophilin). Cyclophilin expression was quantified with custom-made primers and probe (Forward primer: [NT]. ID. NO: 1), Reverse primer: [NT]. ID. NO: 2; Probe: [NT]. ID. NO: 3).

[2] = tested on: ESC-derived definitive endoderm; assay: Nkx2-1+ endoderm induction from ESC-derived endoderm, specification media day 6-14, flow cytometry on day 14; format: cell-based, mouse; settings: for Nkx2-1+ cell specification by day 14: factor(s) present in induction media day 6-14; for Nkx2-1+ endodermal induction efficiency: sequential withdrawal of each individual factor from the WFKBE+2 cocktail
Procedure: Definitive endoderm induction was performed in complete serum-free differentiation medium (cSFDM) consisting of 75% IMDM (Invitrogen 12440) and 25% Ham's Modified F12 medium (Cellgro 10-080-CV) supplemented with N2 and B27+RA (Invitrogen 17502-048 and 17504-44), 0.05% BSA (Invitrogen 15260-037), […] L-glutamine (Invitrogen 25030-081), 0.05 mg/ml ascorbic acid (Sigma A4544) and 4.5×10^-4M MTG (Sigma M6145) as previously described (Gouon-Evans et al., 2006, Longmire et al., 2012). Undifferentiated ESCs were trypsinized to form a single cell suspension and plated onto Petri dishes (500,000 cells/10 cm dish) resulting in the formation of embryoid bodies (EBs) over 60 hours. EBs were dissociated by trypsinization (0.05%, 1 min, 37° C.) and plated as single cells into cSFDM supplemented with 50 ng/ml Activin A (R&D systems 338-AC) for an additional 60 hours. For Anteriorization of endoderm, on day 5 (120 total hours of differentiation) EBs were plated onto p100 Petri dishes in Nog/SB media: cSFDM supplemented with 100 ng/ml mNoggin (R&D 1967-NG) and 10 μM SB431542 (Sigma S4317) as previously described (Longmire et al., 2012). For Nkx2-1+ endoderm induction, EBs were plated on gelatin coated 6 well plates at the equivalent density of 200,000 cells/well in Specification media: cSFDM supplemented as stated in the text with 100 ng/ml mWnt3a (R&D 1324-WN), 10 ng/ml hFGF10 (R&D 345-FG), 10 ng/ml mKGF (R&D 5028-KG), 10 ng/ml mBMP4 (R&D 5020-BP), 20 ng/ml hEGF (R&D 236-EG), 250 ng/ml mFGF2 (R&D 3139-FB) and 100 ng/ml Heparin Sodium Salt (Sigma […]2-1mCherry+ cells, or the populations otherwise indicated in the text were sorted using MoFlo or […] II SORP high speed cell sorters and replated onto gelatin-coated 24 well plates on day 12-14 at a density of 5×10^4 cells/well. Where indicated in the text, small molecule inhibitors were dissolved in DMSO according to manufacturer's instructions and added to the culture media from day 6 to 14 at the following working concentrations: Dorsomorphin 4 μM (Sigma P5499), PD98059 20 μM, SB203580 10 μM (both from Cell Signaling Technology, PHZ1164 and 5633), and LY294002 […] (Promega V1201).

For CC1(C)CC=C(C#Cc2ccccc2)c2cc(/C=C/c3ccc(C(=O)O)cc3)ccc21 [BMS493], the “nkx2-1 induction in the developing thyroid primordium” value (Xenopus embryos) was “normal nkx2-1 induction”.

In the case of Cc1c[nH]c(/C=C2\C(=O)Nc3ccccc32)c1CCC(=O)O [SU5402], the “induction of thyroid markers foxe1, nkx2-1, pax2 and hhex” value (Xenopus embryos; inhibitor from stage NF13 until NF20, DMH-1 40 μM, SU5402 10 μM) is reported as “abrogated induction of all four thyroid markers in the vast majority of embryos”.

In the case of Oc1nc(-c2ccc(C(F)(F)F)cc2)nc2c1CSCC2 [XAV939, reference compound], the “efficiency of lineage specification of Nkx2-1GFP+; Pax8tdTomato trace+ cells” value [1] is reported as “no significant impact” and the “nkx2-1 induction in the developing thyroid primordium” value (Xenopus embryos) is reported as “normal nkx2-1 induction”.

For Nc1ncnc2c1ncn2[C@@H]1O[C@@H]2COP(=O)(O)O[C@H]2[C@H]1O [cAMP, cyclic adenosine monophosphate, reference compound], the “thyroid specific gene expression” value (Nkx2-1mCherry ESC line) was “increase thyroid specific gene expression” and the maturation marker expression (Nkx2-1mCherry ESC line; withdrawal of the factor from the DCI+K cocktail, day 22-26) was “adversely affected maturation”.

“fibroblast growth factor 2 (basic) [FGF2]” was tested, and the “Nkx2-1+ cell specification by day 14” value [2] was “induced low numbers of Nkx2-1+ cells with little thyroid competence”, the “Nkx2-1+ endodermal induction efficiency” value [2] was “indispensible for efficient Nkx2-1+ endodermal induction” and the “efficiency of lineage specification, percent yield of GFP+/tdTomato+ cells” value [1] was “significant decrease in the percent yield of GFP+/tdTomato+ cells”.

For thyroid stimulating hormone [TSH], the “Nis, Tsh-r, and Tpo expression” value (Nkx2-1mCherry ESC line; TSH added after lineage specification, day 14-22) was “significant augmentation of Nis, Tsh-r, and Tpo expression”, the “expression of lineage markers Nkx2-1 and Pax8” value (Nkx2-1mCherry ESC line; TSH added day 14-22, data not shown) was “no significant change” and the “efficiency of thyroid lineage specification” value (Nkx2-1mCherry ESC line; TSH added prior to lineage specification, day 9-12, data not shown) was “no detectable effect”. For the same molecule, the “Nis and Tsh-r expression” value (Nkx2-1mCherry ESC line; additional 3 days of culture maturation in the presence of TSH (Day 25 vs Day 22)) was “further augmentation of Nis and Tsh-r expression”, the “thyroid specific gene expression” value (Nkx2-1mCherry ESC line) was “increase thyroid specific gene expression” and the “thyroid maturation marker Nis” value (Nkx2-1mCherry ESC line; substitution of TSH for cAMP in the DCI+K media, day 22-26) was “most robust augmentation of the thyroid maturation marker, Nis”.

B1: bone morphogenetic protein 4 (protein, UniProt P12644 293-408, looked up)
Bone morphogenetic protein 4: SPKHHSQRARKKNKNCRRHSLYVDFSDVGWNDWIVAPPGYQAFYCHGDCPFPLADHLNSTNHAIVQTLVNSVNSSIPKACCVPTELSAISMLYLDEYDKVVLKNYQEMVVEGCGCR
notes: growth factor in specification media
For B1, the “Nkx2-1+ cell specification by day 14” value [2] was “induced low numbers of Nkx2-1+ cells with little thyroid competence”, the “Nkx2-1+ endodermal induction efficiency” value [2] was “indispensible for efficient Nkx2-1+ endodermal induction” and the “efficiency of lineage specification, percent yield of GFP+/tdTomato+ cells” value [1] was “significant decrease in the percent yield of GFP+/tdTomato+ cells”.

B2: Dkk1: Wnt inhibitor (protein, UniProt O94907 32-266, looked up)
Dickkopf-related protein 1: TLNSVLNSNAIKNLPPPLGGAAGHPGSAVSAAPGILYPGGNKYQTIDNYQPYPCAEDEECGTDEYCASPTRGGDAGVQICLACRKRRKRCMRHAMCCPGNYCKNGICVSSDQNHFRGEIEETITESFGNDHSTLDGYSRRTTLSSKMYHTKGQEGSVCLRSSDCASGLCCARHFWSKICKPVLKEGQVCTKHRRKGSHGLEIFQRCYCGEGLSCRIQKDHHQASNSSRLHTCQRH
B2 was tested, and the “efficiency of lineage specification of Nkx2-1GFP+; Pax8tdTomato trace+ cells” value [1] was “no significant impact”.
